Experimental data taken from patent US9918999B2, “Method for preparing a medical solution for the manufacture of a medicament for peritoneal dialysis” (FRESENIUS MEDICAL CARE DEUTSCHLAND GMBH, priority 2002, dated 2018).

What was measured:
cultured cells = test: in vitro inhibition of cell growth (ICG) in cultured cells; type: cell-based
From the text: Experiments in which measurements of the percentage of inhibition of cell growth (ICG) and fluorescence have been made at varying pH values and NAG concentrations during terminal heat sterilisation are illustrated in FIGS. 1-3. The results of the experiments imply that the pH of the amino sugar containing solution should be decreased from the neutral level and that, in a preferred embodiment of the invention, also the concentration of the amino sugar/sugars should be optimised.
(§1) A simple, reliable and known way to study the cytotoxicity of substances or of medical fluids is to test proliferation as in vitro inhibition of cell growth (ICG) in cultured cells. Another method to get a rough estimation of the amount of amino sugars that is rearranged is measurement of the fluorescence.

[1] = fluorescence of heat sterilised NAG containing solutions; type: physicochemical; conditions: terminally heat sterilised solution, excitation 350 nm, emission 430 nm, FIG. 3
From the text: as §1

[2] = test system: human peritoneal mesothelial cells and fibroblasts; conditions: cited from earlier work
[3] = degradation during heat sterilisation (pH change, HPLC of 3-DG and 3,4-DGE); type: physicochemical
From the text: NAG and other amino sugars have a major difference from glucose and glucose-like compounds by having one amino group and possibly an acetyl group coupled to the glucose ring. […] It should be noted that the decomposition pattern for an amino sugar solution during heat sterilisation follows specific Maillard reactions giving several different toxic decomposition products. The decomposition pattern differs for e.g. a glucose solution during heat sterilisation, wherein different decomposition products are formed. This difference is illustrated in FIGS. 4a-4d, showing chromatograms when analysing 3-DG and 3,4-DGE in a NAG solution and in a glucose solution, respectively. The difference in degradation is likely due to that the NAG molecules contains groups that allows the Maillard reaction to take place and therefore create a large number of degradation products not seen in a glucose solution.

peritoneum = conditions: rats, chronic peritoneal dialysis; cited from earlier work

| pH at which the lowest fluorescence is seen [1] | change of pH of the solution during sterilisation [3] | Molecule | percentage inhibition of cell growth, effect of NAG concentration (cultured cells; NAG 30% vs 1.5% during terminal heat sterilisation, all three pH values, FIG. 2) | cytotoxicity after heat sterilisation (cultured cells; conventional medical solutions) | pH of sterilisation at which inhibition of cell growth reaches a minimum (cultured cells; solution containing 1.5% NAG, FIG. 1) | percentage inhibition of cell growth, effect of pH (cultured cells; terminal heat sterilisation at pH 3.0, 5.5 and 7.2, FIG. 2) | production of hyaluronan and sulphated glycosaminoglycans [2] | known glucose degradation products in heat sterilised solution ([3]; heat sterilised NAG solutions) | effect on the peritoneum of a supplemented dialysis solution (peritoneum) |
| --- | --- | --- | --- | --- | --- | --- | --- | --- | --- |
| ~4 | increases during sterilisation | CC(=O)N[C@H]1C(O)O[C@H](CO)[C@@H](O)[C@@H]1O (stereo partly shown) [NAG, N-acetylglucosamine] | lower after a terminal heat sterilisation at a NAG concentration of 30% than at a NAG concentration of 1.5% | increased cytotoxicity after heat sterilisation | 2.5-3.5 | lower after terminal heat sterilisation at a pH of 3.0 than at a pH of 5.5 and 7.2 | rapidly stimulates the production of hyaluronan and sulphated glycosaminoglycans | none of the known glucose degradation products has been found | causes accumulation of glucosaminoglycans in the peritoneal interstitium, resulting in a favorable change of the peritoneal permeability |
| – | – | hyaluronan [reference compound] | – | – | – | – | – | – | function of the peritoneum as a dialysis membrane is better preserved |
